Laboratory results published in article PMC6715247 (PLoS Neglected Tropical Diseases, 2019).

Columns and labels:
[1] = biological target: T1, rHsAPSK (recombinant APSK domain of HsPAPSS1) (Homo sapiens, UniProt O43252); assay: 96-well plate-based in vitro APSK activity assay (coupling assay, NADH decrease); type: biochemical; conditions: 10 μM compound, 1% DMSO
T1 construct: APSK domains of HsPAPSS1 (Ala^25—Pro^227) and -2 (Ser^15—Pro^217); His tag (pCold-I vector); made in house; host or cells: E. coli BL21(DE3)
T1 sequence (O43252 25-227): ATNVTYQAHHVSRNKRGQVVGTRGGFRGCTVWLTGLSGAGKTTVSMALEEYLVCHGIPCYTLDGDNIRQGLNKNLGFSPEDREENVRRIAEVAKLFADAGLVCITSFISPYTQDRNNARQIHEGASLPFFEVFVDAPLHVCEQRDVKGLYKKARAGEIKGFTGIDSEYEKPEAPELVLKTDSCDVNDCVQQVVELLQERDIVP
Experimental: (§1) A coupling assay to measure APSK activity was performed as described except a 96-well plate was used. Briefly, each well contained 100 μL reaction mixture, which consisted of 90 μL coupling solution and 10 μL of either compound solution (see below) or 10% DMSO. […] The coupling solution was 100 mM Tris/HCl (pH 8.0), 1 mM MgCl2, 1 mM KCl, 5 mM Mg2ATP, 1 mM NADH, 1 mM PEP, 1 U NP1, 3.5 U PK, 5.0 U LDH, and APSK (≤3 μL). […] As controls, in place of purified APSK solution (rEhAPSK or rHsAPSK), 3 μL of a blank [50 mM Tris/HCl buffer (pH 8.0)], a solvent (elution buffer), a mock (rEhSF2), or denatured APSK suspensions obtained by heat-treatment, were added to the coupling solution. The activity of each sample was calculated after removing the baseline value of the blank control.
(§2) For the inhibition assay, 2 μL of each stock solution, which were distributed in a 96-well plate, were transferred to a new plate to make a replicate. After adding 18 μL deionized water to each well and mixing, 10 μL of each diluted solution (100 μM compound solution) was again transferred into a new 96-well plate to make a replicate. Then 90 μL of the coupling solution prepared above was dispensed into each well containing the previously added 10 μL of 100 μM compound solution. As a solvent control, 10% DMSO solution (vol/vol-deionized water) was used in place of compound solution. The final concentrations of each compound and DMSO in a well were 10 μM and 1% (vol/vol), respectively. The assays were performed independently three times, and data are shown as the mean with SD.
(§3) In all assays, prepared mixtures in a plate were mixed on a vibrating table equipped with either an EnVision or ARVO plate reader (PerkinElmer) before starting the reaction.

rEhAPSK = rEhAPSK (Entamoeba histolytica, UniProt C4LUW9); assay: as above; type: biochemical; conditions: 10 μM compound, 1% DMSO
Experimental: as §1, §2
One millimolar stock solutions used were either thawed in a replicate (96-well plate) prepared in [18] […] Subsequently, 3.4 μL of the 1 mM and each diluted stock solution were dispensed into wells of a 96-well culture plate, containing 30.6 μL deionized water and mixed well by pipetting. Ten microliters of all resulting solutions were then dispensed into wells of a 96-well plate to make triplicates and then used as described for the above inhibition assay. 10% DMSO solution was used as an inhibitor-free control. Note that the final DMSO concentration in any well was 1% (vol/vol).
as §3

recombinant EhTrxR = test system: recombinant EhTrxR; parameters: method as in PMID 22610278, PMID 26876147; conditions: ref [19], [59]; cited from earlier work
[2] = test system: E. invadens cyst formation; parameters: method as in PMID 30087858; conditions: ref [18], cited from earlier work
[3] = test system: E. invadens cyst formation; assay: E. invadens cyst formation (encystation) assay (flow cytometry); type: cell-based, Entamoeba invadens; conditions: compound added at 48 h post-induction (48–72 h)
Experimental: E. histolytica trophozoite proliferation and E. invadens cyst formation assays were performed essentially as described in [18] except that in addition to 0–72 and 48–72 h cyst formation assays, 0–96 and 0–120 h, and 48–96 and 48–120 h assays were also performed.

[4] = test system: E. histolytica trophozoite; parameters: method as in PMID 30087858; conditions: ref [18], cited from earlier work
[5] = test system: sulfolipids synthesized in E. histolytica trophozoites; assay: Metabolic labeling by [35S]-labeled sulfate, sulfolipid synthesis; type: cell-based, Entamoeba histolytica; conditions: 6 h treatment; A-D-11, A-H-11 6.25-100 μM, E-H-05 0.5-8 μM
Experimental: Metabolic labeling of E. histolytica trophozoites by [^35S]-labeled sulfate was performed essentially as described previously with slight modification. […] Each 10 mM stock solution (in DMSO) of the three commercially sourced compounds was serially diluted by 2-fold decrements with DMSO. The resulting diluted solutions were then added to 0.75 ml cell suspension in BI-S-33 medium at 1/100 (vol/vol). […] Note that DMSO was used as a solvent control at 1%, which was the DMSO concentration in all samples analyzed. [^35S]-labeled sulfate (45 μCi) was added 4 h after the start of treatments and labeled cells were harvested at 6 h. […] Each spot on the TLC plates was quantified using a Fuji imaging analyzer and Multi Gauge 2.2 software (FLA-7000; Fujifilm, Japan). The total cell protein was estimated using a Pierce BCA protein assay kit (Thermo Scientific, Rockford, IL, USA).

[6] = test system: Human foreskin fibroblast (HFF) cells; assay: WST-1-based cytotoxicity assay
Experimental: Human foreskin fibroblast (HFF) cells (purchased from ATCC) were routinely maintained in DMEM supplemented with 10% fetal bovine serum, 100 units/ml penicillin, […] and 1% GlutaMAX™-I (Thermo Fisher Scientific, Waltham, MA). A WST-1-based cytotoxicity assay was performed as previously described. In detail, HFF cells were plated at 1.0×10^4 cells/100 μL medium in each well of a 96-well culture plate, and incubated overnight at 37°C in a 5% CO2 atmosphere to allow cells to adhere to the wells. […] Numbers of viable cells were then assessed using the Premix WST-1 Cell Proliferation Assay System (Takara). […] DMSO was added at 1% as a negative control whereas ionomycin was added at 30 μM as a positive control. As a blank, the above culture medium was used in place of the solutions added.

rEhAPSK, sequence (C4LUW9 entry or part of it): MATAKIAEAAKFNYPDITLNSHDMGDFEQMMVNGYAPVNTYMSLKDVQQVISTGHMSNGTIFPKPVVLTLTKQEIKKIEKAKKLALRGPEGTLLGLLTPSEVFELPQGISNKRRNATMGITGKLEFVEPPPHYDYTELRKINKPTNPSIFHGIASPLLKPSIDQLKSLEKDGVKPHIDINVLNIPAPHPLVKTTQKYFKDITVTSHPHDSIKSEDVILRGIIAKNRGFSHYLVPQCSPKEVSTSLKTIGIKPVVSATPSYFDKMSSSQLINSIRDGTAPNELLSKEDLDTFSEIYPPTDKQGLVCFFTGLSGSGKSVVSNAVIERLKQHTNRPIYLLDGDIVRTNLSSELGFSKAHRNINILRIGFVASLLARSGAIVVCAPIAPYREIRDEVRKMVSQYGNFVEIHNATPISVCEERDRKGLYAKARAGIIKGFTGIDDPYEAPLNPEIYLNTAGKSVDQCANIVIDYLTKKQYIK

For auranofin [E-H-05, reference compound], the “Inhibition of rHsAPSK activity” value [1] is given as “none showed any inhibitory activity against HsAPSK”, the “Inhibition of rEhAPSK activity” value (rEhAPSK) is given as “reproducibly inhibited rEhAPSK activity” and the IC50 (recombinant EhTrxR) is given as 400 nM. The “Effect on cyst formation” value ([2]; 10 μM) was “negative effects”, the IC50 ([2]; average ± SD) was 1730 ± 700 nM and the “Number of cysts formed at 72 h” value [3] was “did not affected the number of cyst formed at 72 h”. For the same substance, the “Effect on trophozoite proliferation” value ([4]; 10 μM) was “negative effects”, the IC50 ([4]; average ± SD, read-out: Trophozoite proliferation IC50) was 650 ± 180 nM and the “Amount of sulfolipids synthesized” value [5] was “dose-dependently reduced the amount of sulfolipids synthesized”. For the same substance, the “Number of viable HFF cells relative to 1% DMSO control (set as 100%)” value ([6]; 10 μM, 48 h) was under 10% and the IC50 ([6]; read-out: Cytotoxicity (HFF) IC50, 48 h exposure, WST-1) was 4 ± 1.4 µM.
